In brackets after ≈: the same amount, converted by molar mass.
Experiments:
[1] = test system: Mäuse-L 1210-Leukämiezellen; experiment: Proliferation test (14C-thymidine incorporation); format: cell-based; conditions: Mus musculus, read-out: IC50 Proliferations-test
Source text: (§1) Die Ermittlung der zytostatischen Aktivität der Kesarirhodine erfolgte in der nachfolgend beschriebenen Weise an Mäuse-L 1210-Leukämiezellen.
Bei dieser in vitro-Methode ist es nach der Inkubation der Zellen mit verschiedenen Konzentrationen der Prüfsubstanz möglich, die eingebaute Menge eines radioaktiv markierten DNS-Vorläufers (z.B. 14C-Thymidin) in einer wachsenden Zelle zu bestimmen. Als Kontrolle dienen dem gleichen Verfahren unterzogenen unbehandelte L 1210-Zellen. Die Methode wird nachstehend kurz zusammengefaßt: • L 1210-Zellen in exponentieller Wachstumsphase (5 x 10^3/ml in RPMI 1640) werden 72 Stunden lang (37°C, 5 % C02, 95 % relative Feuchtigkeit) in einer 96-Loch-Mikrotiterplatte mit unterschiedlichen Konzentrationen der Prüfsubstanz inkubiert. Als Kontrollen werden Zellen verwendet, die lediglich mit dem frischen Medium in Berührung gebracht werden. Es werden vier Löcher für jede Medikamentenkonzentration und Kontrolle angelegt. Nach 65 Stunden werden 50 µl 14C Thymidin (1,5 oCi/ml) zugefügt, um die Zell-DNS zu markieren. Nach 7 Stunden Inkubation werden die Zellen geerntet, die DNS mit 5 % Trichloressigsäure abgetrennt und mit Wasser und Methanol gewaschen. Nach dem Trocknen bei 50°C wird die Szintillationszahl mit 5 ml Szintillationsflüssigkeit bestimmt.
Die Ergebnisse werden als Quotient des Szintillationsindex nach der Inkubation mit den Testsubstanzen mit dem der Kontrollsubstanz ausgedrückt. Mit den ermittelten Werten wird eine Dosiswirkungskurve gezeichnet und der Wert IC50 d.h. die Konzentration der Prüfsubstanz, die den Einbau von markiertem Thymidin im Vergleich zur Kontrolle um 50 % hemmt, graphisch ermittelt. Die IC50-Werte sind denen von Adriamycin in der folgenden Tabelle III gegenübergestellt.

Candida albicans = experiment: Agar well diffusion (inhibition zone); format: cell-based; conditions: 1 mg/ml solution in a 6 mm well in agar containing Candida albicans; read-out: Hofdurchmesser
Method: (§2) Bestimmt wurde die bakteriostatische Wirkung von Kesarirhodin. Die Resultate, die als Durchmesser (in Millimetern) der Hemmhöfe, erzeugt durch die Substanz in Form einer 1 mg/ml-Lösung in einem Loch von 6 mm Durchmesser in Agar, das den Testorganismus enthält, angegeben sind, werden in der nachfolgenden Tabelle, Tabelle II, dargestellt. Kesarirhodine sind gegen gram-positive Bakterien und Pilze wirksam und können deshalb als Antibiotika zur Behandlung von Pilz- und Staphylokokken-Infektionen, Diphterie, Pneumonie usw. eingesetzt werden.

[2] = Solubility in solvents (qualitative); format: physicochemical
Bacillus subtilis = experiment: Bacteriostatic activity, agar well diffusion (inhibition zone); format: cell-based; conditions: 1 mg/ml solution in a 6 mm well in agar containing Bacillus subtilis; read-out: Hofdurchmesser
Method: as §2

[3] = test system: Staphylococcus aureus 209P; experiment: as above; format: cell-based; conditions: 1 mg/ml solution in a 6 mm well in agar containing Staphylococcus aureus 209P; read-out: Hofdurchmesser
Method: as §2

[4] = test system: Mäuse-L 1210-Leukämiezellen; experiment: Stem cell test (colony formation in soft agar, continuous incubation); format: cell-based; conditions: Mus musculus, L1210, 168 h, read-out: IC50 Stammzellentest 7 Tage Inkubation
Source text: as §1
Diese Methode dient zum Nachweis der Wirkung der Prüfsubstanz auf das Wachstum von Leukämiezellen über mehrere Generationen (da die Dauer eines Zellzyklus 10 - 12 Stunden beträgt, werden innerhalb des Untersuchungszeitraumes von 7 Tagen rund 14 aufeinanderfolgende Generationen erfaßt).
In diesem Test beruht die Wirkung von zytotoxischen Substanzen auf der Verminderung der Zahl beobachtbarer Kolonien im Vergleich zur unbehandelten Kontrolle. Es wird folgende Methodik verwendet: • Pro Platte werden 500 L 1210-Leukämiezellen verwendet. Die Experimente werden bei kontinuierlicher Inkubation mit verschiedenen Konzentrationen der Prüfsubstanz durchgeführt, wobei die Substanz vor dem Aufbringen der Zellen auf die Platte der oberen Agarschicht beigemischt wird. Die Platten werden 7 Tage lang in einem Brutschrank gelagert (37°C, 5 % C023 95 % relative Luftfeuchtigkeit). Anschließend wird die Anzahl der entstandenen Kolonien mit einem Durchmesser von mehr als 60 um mit einem umgekehrten Mikroskop gezählt. Die Resultate werden als Prozentsatz der auf den behandelten Platten gebildeten Kolonien im Vergleich zu denen der unbehandelten Kontrolle ausgedrückt. Mit den ermittelten Werten wird eine Dosiswirkungskurve gezeichnet, aus welcher der IC50-Wert graphisch ermittelt wird. Die IC50-Werte der Kesarirhodine werden in Tabelle III mit denen von Adriamycin verglichen.

[5] = L1210, L 1210 cells, 72 h incubation, 14C-thymidine incorporation, read graphically from dose-response curve
[6] = in Hexan (n-Hexan) und Petroläther (Petroleumäther)
[7] = in Methanol, Aceton, Äthylacetat, Chloroform und schwachen Säuren
[8] = 500 L 1210 cells per plate, soft agar, continuous incubation 7 days, colonies > 60 µm

Row | Löslichkeit [2, 6] | Löslichkeit [2, 7] | IC50 [4, 8] [µg/mL] | SMILES | IC50 [1, 5] [µg/mL] | zone of inhibition at 1000 µg/mL (Candida albicans) [mm] | zone of inhibition at 1000 µg/mL (Bacillus subtilis) [mm] | zone of inhibition at 1000 µg/mL [3] [mm] | IC50 ([1]; L1210, 72 h) [µg/mL] | IC50 [4] [µg/mL]
1 | wenig löslich | löslich | 0.028 (≈ 0.037 µM) | CC[C@]1(O)Cc2c(O)c3c(c(O)c2[C@@H](O[C@H]2C[C@H](N(C)C)[C@H](O[C@H]4CC[C@H](O[C@H]5CC[C@H](O)[C@H](C)O5)[C@H](C)O4)[C@H](C)O2)C1)C(=O)c1c(O)cccc1C3=O [Kesarirhodin B] | 0.1 (≈ 0.132 µM) | 20 | 17 | 17 | – | –
2 | wenig löslich | löslich | 0.031 (≈ 0.0402 µM) | CC[C@]1(O)Cc2c(O)c3c(c(O)c2[C@@H](O[C@H]2C[C@H](N(C)C)[C@H](O[C@H]4C[C@H](O)[C@H](O[C@H]5CC[C@H](O)[C@H](C)O5)[C@H](C)O4)[C@H](C)O2)C1)C(=O)c1c(O)cccc1C3=O [Kesarirhodin A] | 0.031 (≈ 0.0402 µM) | 20 | 17 | 15 | – | –
3 | – | – | – | COc1cccc2c1C(=O)c1c(O)c3c(c(O)c1C2=O)C[C@@](O)(C(=O)CO)C[C@@H]3O[C@H]1C[C@H](N)[C@H](O)[C@H](C)O1 [Adriamycin, reference compound] | – | – | – | – | 0.006 (≈ 0.011 µM) | 0.022 (≈ 0.0405 µM)
